The text below walks through data of ChEMBL document CHEMBL3044761, “Lethal Activity of a Trehalase Inhibitor, Validoxylamine A, against Mamestra brassicae and Spodoptera litura” (J Pestic Sci, 1994).

In assay [1] the test system is Mamestra brassicae. The experiment in a line: Insecticidal activity against last-instar Mamestra brassicae larvae assessed as wing pad separation injected at 1 ug/larvae (reference value: 0%). The format is functional.
The target in a further assay is T1, Chitinase A1 (Thanatephorus cucumeris (strain AG1-IB / isolate 7/3/14) (Lettucebottom rot fungus) (Rhizoctonia solani), UniProt M5BZV0).
T1 sequence (M5BZV0 whole entry): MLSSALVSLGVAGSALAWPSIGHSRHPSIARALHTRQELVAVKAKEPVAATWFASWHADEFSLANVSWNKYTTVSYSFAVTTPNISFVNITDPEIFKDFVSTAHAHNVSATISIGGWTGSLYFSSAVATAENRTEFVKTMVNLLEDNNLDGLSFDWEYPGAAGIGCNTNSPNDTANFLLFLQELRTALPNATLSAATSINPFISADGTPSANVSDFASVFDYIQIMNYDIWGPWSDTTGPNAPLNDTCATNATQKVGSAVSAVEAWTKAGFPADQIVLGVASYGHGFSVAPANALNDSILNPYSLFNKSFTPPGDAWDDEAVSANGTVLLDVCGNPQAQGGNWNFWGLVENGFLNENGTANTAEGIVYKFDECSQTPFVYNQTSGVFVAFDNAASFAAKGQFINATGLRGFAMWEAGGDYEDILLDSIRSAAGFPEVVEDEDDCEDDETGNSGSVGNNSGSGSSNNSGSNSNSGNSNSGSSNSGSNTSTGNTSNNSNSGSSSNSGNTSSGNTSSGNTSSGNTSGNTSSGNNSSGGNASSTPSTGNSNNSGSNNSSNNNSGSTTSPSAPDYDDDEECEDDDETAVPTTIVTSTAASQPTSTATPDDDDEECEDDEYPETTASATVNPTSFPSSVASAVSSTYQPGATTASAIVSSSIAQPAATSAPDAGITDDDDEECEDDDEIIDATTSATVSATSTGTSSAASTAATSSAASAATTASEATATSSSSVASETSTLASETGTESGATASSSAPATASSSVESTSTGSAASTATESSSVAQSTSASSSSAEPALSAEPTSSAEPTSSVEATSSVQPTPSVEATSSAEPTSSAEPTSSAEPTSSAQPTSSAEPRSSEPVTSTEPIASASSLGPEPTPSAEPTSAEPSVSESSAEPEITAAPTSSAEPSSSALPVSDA
The experiment in a line: Inhibition of Rhizoctonia solani chitinase. Conditions: read-out: I50.

Assay [2] relates to Spodoptera litura. The experiment in a line: Insecticidal activity against last-instar Spodoptera litura larvae assessed as wing pad separation at 50 ug/larvae topical application (reference value: 100%). The format is functional.
The subject of assay [3] is Mamestra brassicae. The experiment in a line: Insecticidal activity against last-instar Mamestra brassicae larvae assessed as larval-pupal intermediate at 50 ug/larvae oral administration (reference value: 0%). The format is functional.
Assay [4] has as its system Mamestra brassicae. The experiment in a line: Insecticidal activity against last-instar Mamestra brassicae larvae assessed as partial pupation injected at 10 ug/larvae (reference value: 10%). The format is functional.
The test system of assay [5] is Spodoptera litura. The experiment in a line: Insecticidal activity against last-instar Spodoptera litura larvae assessed as larval pupal intermediate injected at 0.4 ug/larvae (reference value: […]). The format is functional.
Assay [6] concerns Mamestra brassicae. The experiment in a line: Insecticidal activity against last-instar Mamestra brassicae larvae assessed as partial pupation at 50 ug/larvae topical application (reference value: 10%). The format is functional.
Assay [7] relates to Mamestra brassicae. The experiment in a line: Insecticidal activity against last-instar Mamestra brassicae larvae assessed as larval-pupal intermediate injected at 10 ug/larvae (reference value: 0%). The format is functional.
Assay [8] has as its system Mamestra brassicae. The experiment in a line: Insecticidal activity against last-instar Mamestra brassicae larvae assessed as normal pupae injected at 5 ug/larvae (reference value: 90%). The format is functional.

`OCC1=C[C@H](N[C@H]2C[C@H](CO)[C@@H](O)[C@H](O)[C@H]2O)[C@H](O)[C@@H](O)[C@@H]1O` [VALIDOXYLAMINE A]: the Activity with Mamestra brassicae [1] is on record as 20%; in the assay with Spodoptera litura [2] it was 5%; in the assay with Mamestra brassicae [3], 0%; with Mamestra brassicae [4], 13%; in the assay on Spodoptera litura [5] it was 0%; with Mamestra brassicae [6], 40%. The Activity in the assay on Mamestra brassicae [7] was determined as 80%; with Mamestra brassicae [8], 7%. Besides, the IC50 on Chitinase A1 was greater than 1000 µM.
